Assay [1] deals with AR-FL and AR-V7 in 22RV1 cells. Description: 22RV1 AR-FL and AR-V7 Transcriptional Reporter Assay. It is filed as cell-based. The procedure:
(§1) 22RV1 were obtained from ATCC and cultured in RPMI 1640 supplemented with 10% FBS. Cells were seeded at a density of 15,000 cells/well into Greiner 384-well, white, optical-bottom plates in RPMI 1640 phenol red-free medium with 1% charcoal stripped FBS and incubated for 2 days at 37° C. The cells were treated with a compound or Formula (I) in 12-point dose-response, both in the presence and absence of 0.1 nM R1881 for 18-24 hrs. At the end of assay, Steady-Glo reagent (Promega) was added to each well according to the manufacturer's instructions, placed on a shaker at 300 rpm for 10 min, and luminescence recorded using an EnVision plate reader (Perkin Elmer). The data was exported to GraphPad Prism and analyzed using the Four Parameter equation to obtain IC50 values for each compound. Each compound was tested in at least three independent experiments.
On the technique in general: Reporter assays use an easily measured gene product as a stand-in for the process of interest.

The target in the next assay is AR in LNCaP cells (Homo sapiens (Human), UniProt P10275, T878A). As to the kind of experiment: LNCaP AR Localization Assay. It is filed as cell-based. The conditions noted are these: 4 h, read-out: Inhibition of translocation. The method, then:
LNCaP cells were expanded in RPMI 10% FBS in T150 flasks. The cells were dislodged with 0.25% Trypsin, washed in complete media, centrifuged (300 g, 3 min), and the supernatant aspirated. The cells were resuspended in RPMI phenol-red free media with 1% charcoal-stripped serum (CSS) and counted using a ViCELL (Beckman-Coulter). Three million cells in 7 mL of RPMI CSS were seeded into 100 mm dishes and incubated overnight at 37° C. 5% CO2. The following morning, compound dilutions were prepared in RPMI CSS using 50 mM stock solutions and added directly to the cells to obtain the final concentration of 10 μM. The dishes were placed into the incubator for 4 h. After 4 h, cell scrapers were used to dislodge the cells and the media/cell solution was centrifuged, supernatant aspirated, and then washed with Cell Wash Buffer (Protein Simple). The pellets were stored at −80° C. or processed immediately using the Subcellular Protein Fractionation Kit for Cultured Cells (Thermo-Fisher). The fractions obtained from this kit were stored at −80° C. Later, the samples' protein concentration was determined using the BCA Assay Kit (Thermo-Fisher) and the fraction lysates normalized to 0.6 mg/mL. The lysates were run on the Wes Simple Western platform (ProteinSimple). The data was analyzed, normalized to the total AR, and plotted in GraphPad Prism. […]

In assay [2] the target is F876L mutant Androgen Receptor (AR-F876L) (Homo sapiens (Human), UniProt P10275, F877L). Description: LNCaP-AR-F876L ANT reporter assay (antagonist mode). It is filed as cell-based.
F876L mutant Androgen Receptor (AR-F876L), sequence (P10275 whole entry F877L): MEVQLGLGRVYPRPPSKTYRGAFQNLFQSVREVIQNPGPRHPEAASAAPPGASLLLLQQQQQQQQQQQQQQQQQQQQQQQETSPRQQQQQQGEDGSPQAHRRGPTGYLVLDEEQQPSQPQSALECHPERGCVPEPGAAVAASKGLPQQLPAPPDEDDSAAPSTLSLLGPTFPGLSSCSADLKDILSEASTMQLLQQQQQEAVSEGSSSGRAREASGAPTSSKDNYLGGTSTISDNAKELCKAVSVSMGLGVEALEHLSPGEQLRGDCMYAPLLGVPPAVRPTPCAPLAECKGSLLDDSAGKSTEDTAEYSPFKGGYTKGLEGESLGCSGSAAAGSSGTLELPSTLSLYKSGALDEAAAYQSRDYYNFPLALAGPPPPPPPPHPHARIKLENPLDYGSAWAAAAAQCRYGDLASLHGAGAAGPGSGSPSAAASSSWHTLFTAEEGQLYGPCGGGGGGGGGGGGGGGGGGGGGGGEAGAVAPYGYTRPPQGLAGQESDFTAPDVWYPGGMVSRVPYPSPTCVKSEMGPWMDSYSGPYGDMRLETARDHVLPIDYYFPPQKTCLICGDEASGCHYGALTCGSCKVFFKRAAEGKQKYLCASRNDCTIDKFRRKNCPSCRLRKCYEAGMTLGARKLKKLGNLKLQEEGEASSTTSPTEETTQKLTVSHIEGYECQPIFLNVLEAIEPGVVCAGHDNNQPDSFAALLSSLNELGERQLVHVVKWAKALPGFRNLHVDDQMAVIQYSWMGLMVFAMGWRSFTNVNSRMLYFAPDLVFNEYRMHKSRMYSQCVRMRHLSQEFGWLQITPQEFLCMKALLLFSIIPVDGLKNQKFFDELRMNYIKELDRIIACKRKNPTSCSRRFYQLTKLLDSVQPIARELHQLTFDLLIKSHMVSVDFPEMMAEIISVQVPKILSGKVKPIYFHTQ
For the next assay, the system named is 22RV1 cells. As to the kind of experiment: 22RV1 Proliferation Assay. It is filed as cell-based. The settings on record: Homo sapiens, 120 h. The method, then:
as §1, with “of 4,500” for “of 15,000”, “compound of” for “compound or”, “12-point dose-response” for “12-point dose-response,”, “for 5 days. To determine cell viability, CellTiter-Glo” for “for 18-24 hrs. At the end of assay, Steady-Glo”

The subject of another assay is LNCaP F876L. As to the kind of experiment: LNCaP Proliferation Assay (LNCaP F876L). It is filed as cell-based. The conditions noted are these: Homo sapiens, 96 h, 4 days, CellTiter-Glo, normalized to 0.1 nM R1881 stimulation. The procedure: (§2) LNCaP cells were expanded in RPMI 10% FBS in T150 flasks. The cells were dislodged with 0.25% Trypsin, washed in complete media, centrifuged (300 g, 3 min), and the supernatant aspirated. The cells were resuspended in RPMI phenol-red free media with 1% charcoal-stripped serum (CSS) and counted using a ViCELL (Beckman-Coulter). 7500 cells were added to each well of a white optical bottom 384-well plate and incubated for 2 days at 37° C. 5% CO2. Compound dilutions were prepared in RPMI CSS using 50 mM stock solutions and added to the cells either alone (agonist mode) or in combination with 0.1 nM R1881 (antagonist mode). The plates were incubated for 4 days, followed by addition of CellTiter-Glo Luminescent Cell Viability kit reagent (Promega). The plates were placed on a shaker at 3000 rpm for 10 minutes and then read on an EnVision plate reader (Perkin Elmer) using Luminescence assay default settings. The data was analyzed, normalized to 0.1 nM R1881 stimulation, and plotted in GraphPad Prism.

The next assay deals with LNCaP WT. As to the kind of experiment: LNCaP Proliferation Assay (LNCaP WT). It is filed as cell-based. The conditions noted are these: Homo sapiens, 96 h, 4 days, CellTiter-Glo, normalized to 0.1 nM R1881 stimulation. The procedure: as §2
For orientation: ATP-based viability assays read luminescence as a measure of living cells.

The subject of a further assay is LNCaP SRαF876L cells. Description: Castrate Resistant Prostate Cancer Xenograft Study. It is filed as in vivo, mouse. The settings on record: castrate SHO mice. The procedure:
Castrate six to seven week old male SCID Hairless Outbred mice (SHO, Charles Rivers Laboratories) were used as the host strain for xenograft studies. LNCaP SRαF876L cells were cultured as 3-D spheroids and expanded prior to subcutaneous injection on the flank of the animals (supplied post castration). Briefly, 5 mls of cells in media+5 mls of cultrex were premixed prior to plating of 500 μl=2×10^5 cells per well of a 24-well plate. Plates were incubated @ 37° C. for 30 min before addition of complete media on top and returned to incubator for growth of 3-D colonies. After 7 days, media was removed, plates chilled and contents of each well, 500 μl cultrex and cells, injected into flank of a recipient mouse. Tumor volume (length×width2/2) was monitored weekly. When tumors reached an average volume of ˜200 mm^3, animals were randomized into treatment groups. During the treatment period tumor volume was monitored bi-weekly. At study end, tumor growth inhibition (TGI) was calculated: 100−(Treated/Control*100). At the termination of study tumors were collected and stored for further analyses.

Like-named read-outs stand apart in the source and are kept apart here.

Usually IC50 stands for the concentration at which inhibition is half-maximal. In general, inhibition refers to how much of the control response was suppressed. The TGI is the reduction of tumour growth relative to the control group.

AR in LNCaP cells, sequence (P10275 whole entry T878A): as the sequence (P10275 whole entry F877L) above, with L877F, T878A counted along it

For the molecule `N#Cc1ncc(N2C(=O)C3(CCC3)N(c3ccc(OC4CCNCC4)nc3)C2=S)cc1C(F)(F)F` [Cpd 43, 5-[5-oxo-8-[6-(4-piperidyloxy)-3-pyridyl]-7-thioxo-6,8-diazaspiro[3.4]octan-6-yl]-3-(trifluoromethyl)pyridine-2-carbonitrile], the half-inhibitory concentration (IC50) in assay [1] (22RV1, in the absence of 0.1 nM R1881, read-out: IC50, agonist mode) is 121 µM; in assay [1] (22RV1, in the presence of 0.1 nM R1881, read-out: IC50, antagonist mode) it was 0.348 µM; in the assay with 22RV1 cells (22RV1, in the absence of 0.1 nM R1881, 5 days, read-out: IC50, agonist mode), 492 µM; in the assay with 22RV1 cells (22RV1, in the presence of 0.1 nM R1881, 5 days, read-out: IC50, antagonist mode) it was 260 µM; with LNCaP F876L it was 0.197 µM; in the assay on LNCaP WT it was 0.435 µM. For the same molecule, the inhibition at 10 µM on AR in LNCaP cells came to 50%. For the same molecule, the “LNCaP-AR-F876L ANT pIC50” value in assay [2] (antagonist mode, pIC50 = −Log10(IC50 in Molar)) is on record as 7.43. The “LNCaP-AR-F876L ANT MAX % Inh” value in assay [2] (maximum % inhibition of R1881 control response over the tested concentration range) worked out at 100.0%. The tumour growth inhibition (TGI) with LNCaP SRαF876L cells (30 mg/kg) is 91% (n = 9); with LNCaP SRαF876L cells (50 mg/kg), 87% (n = 10).

For the origin of these results see patent US10981926B2 (Janssen Pharmaceutica NV, priority 2016, dated 2021).
